Reference: article PMC8011926 (Journal of Medicinal Chemistry, 2020)
Marks after values point to notes of the source that are not given here. Starred links: 1 amine or outer side, 2 acyl side, 3 side chain; linkers in the order of their positions; H or OH if unused. Non-standard residues stand in square brackets, D forms with d. Residues, ends and D or L forms follow the SMILES beside them. No end group written: not given here. X3 = N[C@@H](Cc1ccccc1)CN(CC(=O)[*:2])[*:1]

Experiments:
NOP receptor = assay: NOP bias factor, G protein vs β-arrestin 2 (Black–Leff operational model); settings: for BIAS FACTOR: supplementary CSV (molecular formula strings), repeats Tables 1–7 without confidence limits; for bias factor (CL95%), NOP: ΔΔlog(τ/KA) G protein minus β-arrestin 2, N/OFQ(1–13)-NH2 as standard unbiased ligand, positive = toward G protein, mean of at least five experiments
From the text: The concentration–response curves of each compound were fitted to the Black–Leff operational model, described by Nagi and Pineyro[70] [drawing 3] where [A] is the agonist concentration, the maximal response of the system is given by Em, n is a fitting parameter for the slope, the affinity of the agonist is represented by the equilibrium dissociation constant of the agonist–receptor complex (KA), and the efficacy of the agonist is defined by τ. τ and KA are descriptive parameters of intrinsic efficacy and binding affinity and may be directly obtained by fitting the experimental data to the operational equation and can be expressed as “transduction coefficients” log(τ/KA). The relative efficiency of agonists producing activation of any pathways can thus be quantified with a “normalized” transduction coefficient, namely Δlog(τ/KA). Finally, the bias factors were calculated as difference between Δlog(τ/KA) values for a given agonist between the pathways (G protein and β-arrestin 2) [drawing 4]
Bias factors are expressed as the mean of at least five independent experiments, and CL95% are indicated. Biased factor is considered to be statistically different from 0 when 0 is not included in CL95%. α values have been statistically analyzed with one-way analysis of variance (ANOVA) followed by the Dunnett post hoc test for multiple comparisons; P values less than 0.05 were considered to be statistically significant.

[1] = molecular target: T1, NOP receptor (NOP-RLuc/β-arrestin 2-RGFP) (Homo sapiens, UniProt P41146); assay: NOP/β-arrestin 2 interaction, BRET assay in whole cells; type: cell-based; settings: for NOP/β-arrestin 2 α ± sem (intrinsic activity): Emax of ligand / Emax of N/OFQ(1–13)-NH2, mean ± sem of five experiments in duplicate; for NOP/β-arrestin 2 pEC50 (CL95%): BRET, whole HEK293 cells co-expressing NOP-RLuc/β-arrestin 2-RGFP, 100,000 cells/well, room temperature, mean of five independent experiments in duplicate, 95% confidence limits
T1 construct: expressed in transfected cells; host or cells: HEK293 (whole cells)
T1 sequence (P41146 whole entry): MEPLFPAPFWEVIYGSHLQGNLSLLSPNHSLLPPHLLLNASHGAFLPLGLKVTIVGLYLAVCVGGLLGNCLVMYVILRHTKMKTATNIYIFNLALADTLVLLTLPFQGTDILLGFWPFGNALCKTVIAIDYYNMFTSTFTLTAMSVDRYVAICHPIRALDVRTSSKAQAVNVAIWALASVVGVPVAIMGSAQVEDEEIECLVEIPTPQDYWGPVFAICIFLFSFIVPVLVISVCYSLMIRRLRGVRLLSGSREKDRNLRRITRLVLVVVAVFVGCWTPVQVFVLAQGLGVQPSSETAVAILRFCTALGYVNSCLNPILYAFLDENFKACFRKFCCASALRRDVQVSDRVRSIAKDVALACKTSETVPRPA
Description: (§1) For this study, human embryonic kidney (HEK293) cells, permanently co-expressing the different pairs of fusion proteins NOP-RLuc/Gβ1-RGFP and NOP-RLuc/β-arrestin 2-RGFP, and SH-SY5Y cells stably, co-expressing the different pairs of fusion proteins mu-RLuc/Gβ1-RGFP and mu-RLuc/β-arrestin 2-RGFP or delta-RLuc/Gβ1-RGFP and delta-RLuc/β-arrestin 2-RGFP, were used. Cells were prepared and cultured, as described previously.[19],[23] Cells were grown in Dulbecco’s modified Eagle’s medium (DMEM)/HAMS F12 (1:1) supplemented with 10% fetal bovine serum, penicillin G (100 units/mL), streptomycin (100 μg mL^–1), L-glutamine (2 mM), fungizone (1 μg mL^–1), geneticin (G418; 200 μg mL^–1), and hygromycin B (100 μg mL^–1) in a humidified atmosphere of 5% CO2 at 37 °C. For G protein experiments, enriched plasma membrane aliquots from transfected cells were prepared by differential centrifugation; cells were detached with phosphate buffered saline (PBS)/EDTA solution (1 mM, pH 7.4 NaOH), then, after 5 min 500g centrifugation, Dounce-homogenized (30 strokes) in cold homogenization buffer (tris(hydroxymethyl)aminomethane 5 mM, EGTA 1 mM, DTT 1 mM, pH 7.4 HCl) in the presence of sucrose (0.32 M). Three following centrifugations were performed at 10 min 1000g (4 °C), and the supernatants were kept. Two 20 min 24,000g (4 °C) subsequent centrifugations (the second in the absence of sucrose) were performed for separating enriched membranes that, after discarding the supernatant, were kept in ultrapure water at −80 °C.[67] The protein concentration in membrane preparations was determined using the QPRO-BCA kit (Cyanagen Srl, Bologna, IT) and the Ensight (PerkinElmer, Waltham, USA) in the spectrophotometer mode.
(§2) Luminescence in membranes was recorded in 96-well untreated white opaque microplates, while in whole cells, it was recorded in 96-well sterile poly-D-lysine-coated white opaque microplates (PerkinElmer, Waltham, MA, USA) using the luminometer Victor 2030 (PerkinElmer, Waltham, MA, USA). For the determination of receptor/G protein interactions, membranes (3 μg of protein) prepared from cells co-expressing NOP (or mu or delta)/RLuc and Gβ1/RGFP were added to wells in DPBS. For the determination of receptor/β-arrestin 2 interactions, cells co-expressing NOP (or mu or delta)/RLuc and β-arrestin 2/RGFP were plated 24 h before the experiment in poly-D-lysine-treated plates (100,000 cells/well). The cells were prepared for the experiment substituting the medium with PBS with MgCl2 (0.5 mM) and CaCl2 (0.9 mM). Coelenterazine at a final concentration of 5 μM was injected 15 min prior to reading the cell plate. Different concentrations of ligands in 20 μL of PBS–BSA 0.01% were added and incubated 5 min before reading luminescence. […] The BRET ratio was measured 15 min after agonist injection. All experiments were performed at room temperature.
(§3) The pharmacological terminology adopted in this paper is consistent with IUPHAR recommendations.[68] All data are expressed as the mean ± sem of five independent experiments made in duplicate. […] Ligand efficacy was expressed as intrinsic activity (α), calculated as the ratio between the Emax of the ligand and that of the standard agonist. Count per second (CPS) measured for the RGFP and RLuc light emitted using 510(10) and 460(25) filters (PerkinElmer, Waltham, MA), respectively, was used to calculate the BRET ratio. All data are expressed as the stimulated BRET ratio, that is, the ratio between CPS from RGFP and RLuc in the presence of ligands minus the BRET ratio in vehicle-treated wells. […] Concentration–response curves to agonists were fitted to the classical four-parameter logistic nonlinear regression model [drawing 1]
(§4) Curves fitting were performed using PRISM 6.0 (GraphPad Software In., San Diego, USA).

[2] = molecular target: T2, NOP receptor (NOP-RLuc/Gβ1-RGFP) (Homo sapiens, UniProt P41146); assay: NOP/G protein interaction, BRET assay in membranes; type: biochemical; settings: for NOP/G protein pEC50 (CL95%): BRET, membranes (3 μg protein) from HEK293 cells co-expressing NOP-RLuc/Gβ1-RGFP, room temperature, mean of five independent experiments in duplicate, 95% confidence limits; for NOP/G protein CR (concentration ratio): ratio between EC50 of the ligand and that of the standard agonist N/OFQ(1–13)-NH2
T2 construct: expressed in transfected cells; host or cells: HEK293 (enriched plasma membranes)
T2 sequence (P41146 whole entry): as above
Description: as §1, §2, §3, §4

Compound | BIAS FACTOR (NOP receptor) | bias factor (CL95%), NOP (NOP receptor) | NOP/β-arrestin 2 pEC50 (CL95%) [1] | also measured
C[C@H](NC(=O)[C@H](CO)NC(=O)[C@H](CCCCN)NC(=O)[C@H](CCCNC(=N)N)NC(=O)[C@@H](C)NC(=O)CNC(=O)[C@@H](NC(=O)[C@H](Cc1ccccc1)NC(=O)CNC(=O)CNC(=O)[C@@H](N)Cc1ccccc1)[C@@H](C)O)C(=O)N[C@@H](CCCNC(=N)N)C(=O)N[C@@H](CCCCN)C(N)=O [Compound 15, [DAla^7]N/OFQ(1–13)-NH2] | 0.21 | 0.21 (−0.28–0.70) |  | 
C[C@H](NC(=O)CNC(=O)[C@@H](NC(=O)[C@H](Cc1ccccc1)NC(=O)CNC(=O)CNC(=O)[C@@H](N)Cc1ccccc1)[C@@H](C)O)C(=O)N[C@H](CCCNC(=N)N)C(=O)N[C@@H](CCCCN)C(=O)N[C@@H](CO)C(=O)N[C@@H](C)C(=O)N[C@@H](CCCNC(=N)N)C(=O)N[C@@H](CCCCN)C(N)=O [Compound 16, [DArg^8]N/OFQ(1–13)-NH2] |  | 0.26 (−0.25–0.77) |  | 
C[C@H](NC(=O)CNC(=O)[C@@H](NC(=O)[C@H](Cc1ccccc1)NC(=O)CNC(=O)CNC(=O)[C@@H](N)Cc1ccccc1)[C@@H](C)O)C(=O)N[C@@H](CCCNC(=N)N)C(=O)N[C@@H](CCCCN)C(=O)N[C@H](CO)C(=O)N[C@@H](C)C(=O)N[C@@H](CCCNC(=N)N)C(=O)N[C@@H](CCCCN)C(N)=O [Compound 18, [DSer^10]N/OFQ(1–13)-NH2] | -0.07 | –0.07 (−0.52–0.39) |  | 
C[C@H](NC(=O)CNC(=O)[C@@H](NC(=O)[C@H](Cc1ccccc1)NC(=O)CNC(=O)CNC(=O)[C@@H](N)Cc1ccccc1)[C@@H](C)O)C(=O)N[C@@H](CCCNC(=N)N)C(=O)N[C@@H](CCCCN)C(=O)N[C@@H](CO)C(=O)N[C@H](C)C(=O)N[C@@H](CCCNC(=N)N)C(=O)N[C@@H](CCCCN)C(N)=O [Compound 19, [DAla^11]N/OFQ(1–13)-NH2] | 0.14 | 0.14 (−0.31–0.60) |  | 
C[C@H](NC(=O)CNC(=O)[C@@H](NC(=O)[C@H](Cc1ccccc1)NC(=O)CNC(=O)CNC(=O)[C@@H](N)Cc1ccccc1)[C@@H](C)O)C(=O)N[C@@H](CCCNC(=N)N)C(=O)N[C@@H](CCCCN)C(=O)N[C@@H](CO)C(=O)N[C@@H](C)C(=O)N[C@H](CCCNC(=N)N)C(=O)N[C@@H](CCCCN)C(N)=O [Compound 20, [DArg^12]N/OFQ(1–13)-NH2] |  | 0.26 (−0.19–0.71) |  | 
C[C@H](NC(=O)CNC(=O)[C@@H](NC(=O)[C@H](Cc1ccccc1)NC(=O)CNC(=O)CNC(=O)[C@@H](N)Cc1ccccc1)[C@@H](C)O)C(=O)N[C@@H](CCCNC(=N)N)C(=O)N[C@@H](CCCCN)C(=O)N[C@@H](CO)C(=O)N[C@@H](C)C(=O)N[C@@H](CCCNC(=N)N)C(=O)N[C@H](CCCCN)C(N)=O [Compound 21, [DLys^13]N/OFQ(1–13)-NH2] | 0.03 | 0.03 (−0.42–0.48) |  | 
C[C@H](NC(=O)CNC(=O)[C@@H](NC(=O)[C@H](Cc1ccccc1)NC(=O)CNC(=O)CNC(=O)[C@@H](N)CC1CCCCC1)[C@@H](C)O)C(=O)N[C@@H](CCCNC(=N)N)C(=O)N[C@@H](CCCCN)C(=O)N[C@@H](CO)C(=O)N[C@@H](C)C(=O)N[C@@H](CCCNC(=N)N)C(=O)N[C@@H](CCCCN)C(N)=O [Compound 22, [Cha^1]N/OFQ(1–13)-NH2] | 0.20 | 0.20 (−0.36–0.76) |  | NOP/β-arrestin 2 α ± sem (intrinsic activity) [1]: 1.03 ± 0.05
C[C@H](NC(=O)CNC(=O)[C@@H](NC(=O)[C@H](Cc1ccccc1)NC(=O)CNC(=O)CNC[C@@H](N)Cc1ccccc1)[C@@H](C)O)C(=O)N[C@@H](CCCNC(=N)N)C(=O)N[C@@H](CCCCN)C(=O)N[C@@H](CO)C(=O)N[C@@H](C)C(=O)N[C@@H](CCCNC(=N)N)C(=O)N[C@@H](CCCCN)C(N)=O [Compound 30, [Phe^1ψ(CH2–NH)Gly^2]N/OFQ(1–13)-NH2] (H-[X3]GFTGARKSARK-NH2) |  |  | Inactive | 
FAGFTGARKSARK-NH2 [Compound 2, [Ala^2]N/OFQ(1–13)-NH2] |  |  | inactive | NOP/G protein pEC50 (CL95%) [2]: 6.36 (5.89–6.83); NOP/G protein α ± sem (intrinsic activity) ([2]; Emax of ligand / Emax of N/OFQ(1–13)-NH2, mean ± sem of five experiments in duplicate): 0.54 ± 0.07 ^a; NOP/G protein CR (concentration ratio) [2]: 275
FGGWTGARKSARK-NH2 [Compound 24, [Trp^4]N/OFQ(1–13)-NH2] | 0.11 | 0.11 (−0.43–0.65) |  | NOP/β-arrestin 2 α ± sem (intrinsic activity) [1]: 0.77 ± 0.03 ^a
[AC3C^7]N/OFQ-NH2 [Compound 36] | 0.40 | 0.40 (−0.11–0.90) |  | 
[AC5C^7]N/OFQ-NH2 [Compound 37] | 0.08 | 0.08 (−0.41–0.58) |  | 
[AC5C^11]N/OFQ-NH2 [Compound 38] | 0.31 | 0.31 (−0.19–0.81) |  | 
[Aib^11]N/OFQ-NH2 [Compound 35] | 0.29 | 0.29 (−0.20–0.79) |  | 
[Ala^1]N/OFQ(1–13)-NH2 (AGGFTGARKSARK-NH2) [Compound 1] |  |  | inactive | NOP/G protein pEC50 (CL95%) [2]: Crc incomplete; NOP/G protein CR (concentration ratio) [2]: ∼700
[Ala^4]N/OFQ(1–13)-NH2 (FGGATGARKSARK-NH2) [Compound 4] |  |  | inactive | NOP/G protein pEC50 (CL95%) [2]: Crc incomplete; NOP/G protein CR (concentration ratio) [2]: ∼1000
[Ala^8]N/OFQ(1–13)-NH2 (FGGFTGAAKSARK-NH2) [Compound 7] |  |  | inactive | NOP/G protein pEC50 (CL95%) [2]: Crc incomplete; NOP/G protein CR (concentration ratio) [2]: ∼1000
[Cys(X)^14]N/OFQ(1-14)-NH2 [Compound 49] (chain 1 FGGFTGARKSARKC; chain 2 KKKKKK) [(Lys)6 moiety] |  |  | 8.22 (8.03-8.40) | NOP/G protein pEC50 (CL95%) [2]: 10.06 (9.79-10.34)
